Laboratory results reported in ChEMBL document CHEMBL1909046, “DrugMatrix in vitro pharmacology data”.

Key:
[1] = target: T1, Neutrophil elastase (Homo sapiens, UniProt P08246); assay type: tissue-based;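 further: inhibition of neutrophil elastase enzyme activity, measured with a p-nitroanilide-linked peptide substrate; in other assays of this panel Not Active means under 50% inhibition at 10 µM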
T1 sequence (P08246 whole entry): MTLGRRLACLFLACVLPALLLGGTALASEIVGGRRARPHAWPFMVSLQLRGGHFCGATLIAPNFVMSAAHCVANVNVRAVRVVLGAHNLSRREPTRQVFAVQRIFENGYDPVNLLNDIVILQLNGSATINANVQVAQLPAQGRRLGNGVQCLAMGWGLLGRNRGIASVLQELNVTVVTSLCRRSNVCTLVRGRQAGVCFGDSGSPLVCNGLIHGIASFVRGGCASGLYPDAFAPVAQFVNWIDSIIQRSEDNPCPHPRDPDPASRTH

[2] = target: T2, Leukotriene C4 synthase (Cavia porcellus, UniProt A6XA80); assay type: tissue-based, Lung;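 further: enzyme inhibition assay of leukotriene C4 synthase, using LTA4 as the substrate; in other assays of this panel Not Active means under 50% inhibition at 10 µM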
T2 sequence (A6XA80 whole entry): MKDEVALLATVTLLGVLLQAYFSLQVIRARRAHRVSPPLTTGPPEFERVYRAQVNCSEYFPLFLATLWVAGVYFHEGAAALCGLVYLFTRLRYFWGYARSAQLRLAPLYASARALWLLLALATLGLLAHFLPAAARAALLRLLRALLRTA

[3] = target: T3, B2 bradykinin receptor (Homo sapiens, UniProt P30411); assay type: cell membranes, Membrane; details: chem-1; further: in other assays of this panel Not Active means under 50% inhibition at 10 µM
T3 sequence (P30411 whole entry): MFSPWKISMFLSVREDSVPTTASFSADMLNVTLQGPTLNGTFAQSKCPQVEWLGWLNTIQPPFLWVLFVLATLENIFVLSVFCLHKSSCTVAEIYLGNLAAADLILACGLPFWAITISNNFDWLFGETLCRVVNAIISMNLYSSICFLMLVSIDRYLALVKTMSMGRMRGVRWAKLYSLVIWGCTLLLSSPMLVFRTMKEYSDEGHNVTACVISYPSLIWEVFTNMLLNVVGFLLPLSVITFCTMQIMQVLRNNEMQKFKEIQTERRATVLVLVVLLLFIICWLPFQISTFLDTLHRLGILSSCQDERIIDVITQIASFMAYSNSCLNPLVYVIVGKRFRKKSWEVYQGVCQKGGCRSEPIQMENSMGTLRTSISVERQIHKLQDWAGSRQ

[4] = target: T4, Cytochrome P450 1A2 (Homo sapiens, UniProt P05177); details: bti-tn-5b1-4; further: in other assays of this panel Not Active means under 50% inhibition at 10 µM
T4 sequence (P05177 whole entry): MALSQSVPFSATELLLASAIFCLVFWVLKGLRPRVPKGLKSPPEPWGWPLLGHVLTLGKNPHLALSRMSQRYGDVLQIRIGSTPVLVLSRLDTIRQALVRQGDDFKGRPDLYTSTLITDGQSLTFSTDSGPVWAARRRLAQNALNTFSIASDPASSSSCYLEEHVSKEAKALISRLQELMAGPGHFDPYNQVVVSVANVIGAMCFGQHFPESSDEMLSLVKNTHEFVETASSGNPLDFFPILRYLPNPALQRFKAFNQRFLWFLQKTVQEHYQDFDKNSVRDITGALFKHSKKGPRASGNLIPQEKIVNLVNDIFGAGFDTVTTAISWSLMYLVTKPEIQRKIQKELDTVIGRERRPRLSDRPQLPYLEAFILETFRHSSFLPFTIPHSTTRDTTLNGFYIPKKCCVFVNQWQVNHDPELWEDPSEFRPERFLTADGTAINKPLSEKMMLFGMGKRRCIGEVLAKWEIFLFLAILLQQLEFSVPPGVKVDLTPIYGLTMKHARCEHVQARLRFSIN

[5] = target: T5, Thromboxane-A synthase (Homo sapiens, UniProt P24557); assay: biochemical; assay type: tissue-based, Platelet; details: platelet
T5 sequence (P24557 whole entry): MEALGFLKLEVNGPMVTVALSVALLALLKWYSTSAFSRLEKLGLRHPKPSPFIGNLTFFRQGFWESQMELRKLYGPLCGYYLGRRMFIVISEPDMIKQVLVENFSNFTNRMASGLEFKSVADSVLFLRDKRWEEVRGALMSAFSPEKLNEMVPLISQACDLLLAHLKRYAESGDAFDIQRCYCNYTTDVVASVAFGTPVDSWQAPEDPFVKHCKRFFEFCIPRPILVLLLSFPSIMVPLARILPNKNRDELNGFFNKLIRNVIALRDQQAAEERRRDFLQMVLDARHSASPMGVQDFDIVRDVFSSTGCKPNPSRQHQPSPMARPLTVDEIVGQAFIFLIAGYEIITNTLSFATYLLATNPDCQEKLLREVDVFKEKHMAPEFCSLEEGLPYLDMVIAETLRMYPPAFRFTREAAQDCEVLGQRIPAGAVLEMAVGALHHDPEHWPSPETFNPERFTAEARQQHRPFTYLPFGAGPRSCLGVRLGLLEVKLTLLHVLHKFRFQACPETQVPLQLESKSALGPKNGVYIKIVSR

[6] = target: Beta-2 adrenergic receptor (Homo sapiens, UniProt P07550); assay: DRUGMATRIX: Adrenergic beta2 radioligand binding (ligand: [3H] CGP-12177); assay type: cell membranes, CHO, Membrane; details: Not Active = under 50% inhibition at 10 µM
[7] = target: T6, Cholecystokinin receptor type A (Homo sapiens, UniProt P32238); assay type: cell membranes, Membrane; details: 1321-n1; further: in other assays of this panel Not Active means under 50% inhibition at 10 µM
T6 sequence (P32238 whole entry): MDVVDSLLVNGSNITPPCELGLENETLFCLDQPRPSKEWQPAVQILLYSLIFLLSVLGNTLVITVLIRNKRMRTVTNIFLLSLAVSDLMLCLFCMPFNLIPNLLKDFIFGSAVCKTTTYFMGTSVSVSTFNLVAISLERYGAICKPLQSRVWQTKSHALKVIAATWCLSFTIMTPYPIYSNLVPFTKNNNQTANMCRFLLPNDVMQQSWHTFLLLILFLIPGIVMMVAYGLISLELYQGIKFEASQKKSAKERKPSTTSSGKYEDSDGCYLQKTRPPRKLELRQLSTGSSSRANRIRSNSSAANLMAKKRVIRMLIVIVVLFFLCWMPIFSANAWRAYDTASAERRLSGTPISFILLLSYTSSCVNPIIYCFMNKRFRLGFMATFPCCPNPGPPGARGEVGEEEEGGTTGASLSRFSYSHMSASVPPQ

Beta-2 adrenergic receptor, sequence (P07550 whole entry): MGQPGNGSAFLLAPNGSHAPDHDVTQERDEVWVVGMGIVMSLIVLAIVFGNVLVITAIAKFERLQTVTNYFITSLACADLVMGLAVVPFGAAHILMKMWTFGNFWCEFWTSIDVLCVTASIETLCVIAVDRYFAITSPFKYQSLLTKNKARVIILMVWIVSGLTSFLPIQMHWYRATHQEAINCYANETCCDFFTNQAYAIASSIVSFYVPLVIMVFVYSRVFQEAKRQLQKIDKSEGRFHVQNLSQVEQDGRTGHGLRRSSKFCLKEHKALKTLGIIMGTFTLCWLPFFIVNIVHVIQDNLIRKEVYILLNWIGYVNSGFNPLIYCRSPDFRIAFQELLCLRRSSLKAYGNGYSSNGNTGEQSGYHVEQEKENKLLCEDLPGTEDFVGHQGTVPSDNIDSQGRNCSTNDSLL

Row | Structure (SMILES) | IC50 [1] | IC50 [2] | IC50 [3] | IC50 [4] | Ki [4] | IC50 [5] | IC50 ([6]; cho) | IC50 [7] | IC50 ([6]; read-out: IC50) [nM] | Ki ([6]; read-out: Ki) [nM]
1 | CCC1(CCC(C)C)C(=O)NC(=O)NC1=O [AMOBARBITAL] | Not Active | Not Active | Not Active | Not Active | Not Active | Not Active | Not Active | Not Active |  | 
2 | CC1(C)S[C@@H]2[C@H](NC(=O)[C@H](N)c3ccccc3)C(=O)N2[C@H]1C(=O)O [AMPICILLIN] | Not Active | Not Active | Not Active | Not Active | Not Active | Not Active | Not Active | Not Active |  | 
3 | COc1ccc(C2C(=O)c3ccccc3C2=O)cc1 [ANISINDIONE] | Not Active | Not Active | Not Active | Not Active | Not Active | Not Active | Not Active | Not Active |  | 
4 | O=C1O[C@H]([C@@H](O)CO)C(O)=C1O [ASCORBIC ACID] | Not Active | Not Active | Not Active | Not Active | Not Active | Not Active | Not Active | Not Active |  | 
5 | CC(C(=O)O)c1ccc2oc(-c3ccc(Cl)cc3)nc2c1 (stereo not drawn) [BENOXAPROFEN] | Not Active | Not Active | Not Active | Not Active | Not Active | Not Active | Not Active | Not Active |  | 
6 | COc1ccc2cc3[n+](cc2c1OC)CCc1cc2c(cc1-3)OCO2.[Cl-] [BERBERINE CHLORIDE] | Not Active | Not Active | Not Active | Not Active | Not Active | Not Active | Not Active | Not Active |  | 
7 | O=C(O)CCNC(=O)c1ccccc1 [BETAMIPRON] | Not Active | Not Active | Not Active | Not Active | Not Active | Not Active | Not Active | Not Active |  | 
8 | CC(=O)Oc1ccc(C(c2ccc(OC(C)=O)cc2)c2ccccn2)cc1 [BISACODYL] | Not Active | Not Active | Not Active | Not Active | Not Active | Not Active | Not Active | Not Active |  | 
9 | Cc1cc2c(OCC(CNC(C)(C)C)OC(=O)c3ccccc3)cccc2[nH]1 (stereo not drawn) [BOPINDOLOL] | Not Active | Not Active | Not Active | Not Active | Not Active | Not Active |  | Not Active | 20 | 14
10 | Brc1c(NC2=NCCN2)ccc2nccnc12 [BRIMONIDINE] | Not Active | Not Active | Not Active | Not Active | Not Active | Not Active | Not Active | Not Active |  | 
11 | CN(C)[C@@H]1C(O)=C(C(N)=O)C(=O)[C@@]2(O)C(O)=C3C(=O)c4c(O)ccc(Cl)c4[C@@](C)(O)[C@H]3C[C@@H]12 [CHLORTETRACYCLINE] | Not Active | Not Active | Not Active | Not Active | Not Active | Not Active | Not Active | Not Active |  | 
12 | CN/C(=N\CCSCc1nc[nH]c1C)NC#N [CIMETIDINE] | Not Active | Not Active | Not Active | Not Active | Not Active | Not Active | Not Active | Not Active |  | 
13 | COc1cc(N)c(Cl)cc1C(=O)NC1CCN(CCCOc2ccc(F)cc2)CC1OC (stereo not drawn) [CISAPRIDE] | Not Active | Not Active | Not Active | Not Active | Not Active | Not Active | Not Active | Not Active |  | 
14 | CCC(=O)O[C@]1(C(=O)CCl)[C@@H](C)C[C@H]2[C@@H]3CCC4=CC(=O)C=C[C@]4(C)[C@@]3(F)[C@@H](O)C[C@@]21C [CLOBETASOL PROPIONATE] | Not Active | Not Active | Not Active | Not Active | Not Active | Not Active | Not Active | Not Active |  | 
15 | O=C1CN=C(c2ccccc2Cl)c2cc([N+](=O)[O-])ccc2N1 [CLONAZEPAM] | Not Active | Not Active | Not Active | Not Active | Not Active | Not Active | Not Active | Not Active |  | 
16 | Nc1ccn([C@@H]2O[C@H](CO)[C@@H](O)[C@@H]2O)c(=O)n1 [CYTARABINE] | Not Active | Not Active | Not Active | Not Active | Not Active | Not Active | Not Active | Not Active |  | 
17 | C[C@@H]1C[C@H]2[C@@H]3CCC4=CC(=O)C=C[C@]4(C)[C@@]3(F)[C@@H](O)C[C@]2(C)[C@H]1C(=O)CO [DESOXIMETASONE] | Not Active | Not Active | Not Active | Not Active | Not Active | Not Active | Not Active | Not Active |  | 
18 | C[C@@H]1C[C@H]2[C@@H]3CCC4=CC(=O)C=C[C@]4(C)[C@@]3(F)[C@@H](O)C[C@]2(C)[C@@]1(O)C(=O)CO [DEXAMETHASONE] | Not Active | Not Active | Not Active | Not Active | Not Active | Not Active | Not Active | Not Active |  | 
19 | CN(C)CC[C@@H](c1ccc(Cl)cc1)c1ccccn1 [DEXCHLORPHENIRAMINE] | Not Active | Not Active | Not Active | Not Active | Not Active | Not Active | Not Active | Not Active |  | 
